Experimental data as given in patent US20120003655A1, “IDENTIFICATION OF NEUROPROTECTIVE AGENTS USING PRO-INFLAMMATORY HUMAN GLIAL CELLS” (The Salk Institute for Biological Studies, priority 2008, published 2012).
Each block holds one molecule with its values, some of them ahead of it.

Key:
[1] = system: recruitment of Nurr1 at iNOS-promoter; assay: ChIP assay, Nurr1 recruitment to iNOS-promoter in mouse primary astrocytes; assay type: cell-based; details: SB21 pre-incubation, IL1β stimulation
Method: FIGS. 15A-I show the CoREST complex requirement for Nurr1-mediated repression in astrocytes. (FIG. 15A) IL1β stimulation enhances physical association of Nurr1 and p65 in mouse primary astrocytes. Lysates of astrocytes stimulated with IL1β (10 ng/ml) for the indicated times were immunoprecipitated with anti-Nurr1 antibody and Western blots were developed with anti-p65 antibody. Equal loading was determined as described in FIG. 12F. (FIG. 15B) Recruitment of Nurr1 and p65 to iNOS-promoter in mouse primary astrocyte shown by ChIP assay. Data represent fold enrichment of iNOS-promoter precipitated with the indicated antibodies compared to control IgG as determined by qPCR. […] Mouse primary astrocytes were treated with SB21 as described in FIG. 12A. Data represent fold enrichment of iNOS-promoter precipitated with antibody against Nurr1 compared to control IgG as determined by qPCR. […] Data represent fold enrichment of iNOS-promoter precipitated with the indicated antibodies compared to control IgG as determined by qPCR. […] Cells were stimulated with 10 ng/ml IL1β for 6 h and mRNA expression of iNOS (FIG. 15F), CSF1 (FIG. 15G) and Ncf1 (FIG. 15H) was determined by qPCR. […]
(§1) ChIP assay. […] Quantitative PCR (qPCR) was performed with SYBR-GREEN PCR master Mix (ABI) or SYBR-GreenER (Invitrogen) and analyzed on a 7200 real time PCR system (ABI).

[2] = system: recruitment of Nurr1 to the TNFα-promoter; assay: ChIP assay, Nurr1 recruitment to TNFα-promoter in BV2 cells; assay type: cell-based, mouse; details: 30 μM SB21 for 1 h followed by LPS
Method: (§2) FIGS. 12A-I show Nurr1 acting as an RXR-independent, GSK3β-dependent transrepressor for NF-κB. (FIG. 12A) Nurr1 is recruited to the TNFα-promoter in response to LPS. This recruitment is blocked by the GSK3β-specific inhibitor SB216763 (SB21). BV2 cells were pre-incubated with DMSO or 30 μM SB21 for 1 h followed by LPS stimulation for the indicated times before ChIP assay. […] (FIG. 12B) Nurr1-mediated repression is independent of DNA binding and RXR dimerization. RAW264.7 cells were transfected with wild type Nurr1, P-box mutant Nurr1C280A/E281A (CEAA) and I-box mutant Nurr1K555A/L556A/L227A (KLL). iNOS-promoter activity in RAW264.7 cells measured by luciferase-reporter assay. *, p<0.01 compared to control (Mock). […] Equal loading was determined by re-blotting using anti-Nurr1 antibody. […] Nurr1 expression vector was transfected into RAW264.7 cells together with control siRNA or siRNA against GSK3β and iNOS-promoter activity was determined as described before. *, p<0.01 compared to Nurr1 with control siRNA. (FIG. 12I) S468A mutant of p65 abolishes Nurr1-mediated repression of iNOS-promoter activity. iNOS-promoter activity was determined as described before. […]
as §1

[3] = system: interaction of Nurr1 and p65; assay: Co-immunoprecipitation of Nurr1 and p65 in LPS-stimulated BV2 cells; assay type: cell-based, mouse; details: SB21 1 h prior to LPS (1 μg/ml), co-IP and Western blot
Method: as §2, with “(Mock). (FIG. 12C) siRNA against Ubc9 abolishes Nurr1-mediated transrepression of iNOS-promoter activity. *, p<0.01 compared to Nurr1 with control siRNA. (FIG. 12D) K558 and K576 are the predominant SUMOylation sites of Nurr1.” for “(Mock).”

ALS = ALS patients; cited from earlier work
[4] = target: T1, Nurr1 (NR4A2), endogenous protein in mouse cells (mouse, UniProt Q06219 1-598); assay: co-IP from BV2 lysates, anti-Nurr1 IP, anti-p65 Western blot (FIG. 12F)
T1 construct: Endogenous protein, immunoprecipitated or blotted with anti-Nurr1 (E-20, Santa Cruz)
T1 sequence (Q06219 whole entry): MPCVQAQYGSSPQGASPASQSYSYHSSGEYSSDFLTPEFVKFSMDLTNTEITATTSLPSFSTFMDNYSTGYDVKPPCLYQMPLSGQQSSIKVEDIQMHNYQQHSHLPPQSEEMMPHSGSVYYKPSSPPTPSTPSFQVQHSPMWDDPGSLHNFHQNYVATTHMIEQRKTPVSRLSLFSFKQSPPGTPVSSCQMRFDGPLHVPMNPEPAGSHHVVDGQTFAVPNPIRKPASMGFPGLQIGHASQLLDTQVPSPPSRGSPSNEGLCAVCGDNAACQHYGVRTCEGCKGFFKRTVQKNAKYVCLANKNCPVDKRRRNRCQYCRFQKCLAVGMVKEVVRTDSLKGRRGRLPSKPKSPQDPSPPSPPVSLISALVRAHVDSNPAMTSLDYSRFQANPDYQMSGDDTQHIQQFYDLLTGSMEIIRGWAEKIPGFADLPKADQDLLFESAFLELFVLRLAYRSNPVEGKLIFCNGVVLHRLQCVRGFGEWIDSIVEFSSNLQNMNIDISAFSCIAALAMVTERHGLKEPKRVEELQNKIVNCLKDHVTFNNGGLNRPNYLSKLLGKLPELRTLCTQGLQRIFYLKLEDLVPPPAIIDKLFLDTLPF
Method: Lysates of BV2 cells stimulated with LPS (1 μg/ml) for the indicated times were immunoprecipitated with anti-Nurr1 antibody and Western blots were developed with anti-p65 antibody. Equal loading was determined by re-blotting using anti-Nurr1 antibody. (FIG. 12G) SB21 impairs the binding of Nurr1 and p65 in a dose-dependent manner. BV2 cells were incubated with SB21 at the indicated concentrations for 1 h prior to stimulation with LPS (1 μg/ml). IP and Western blotting were performed as described in FIG. 12F. (FIG. 12H) siRNA against GSK3β abolishes Nurr1-mediated repression of iNOS-promoter activity. Nurr1 expression vector was transfected into RAW264.7 cells together with control siRNA or siRNA against GSK3β and iNOS-promoter activity was determined as described before. *, p<0.01 compared to Nurr1 with control siRNA. (FIG. 12I) S468A mutant of p65 abolishes Nurr1-mediated repression of iNOS-promoter activity. iNOS-promoter activity was determined as described before.
Co-immunoprecipitations and Western blotting. Hela cells or NIH3T3 cells were transfected using Lipofectamine 2000 reagent (Invitrogen) following manufacturer's protocol. Transfected cells were stimulated by 10 ng/ml recombinant human or mouse mIL1β (R & D system) for the indicated times prior to harvesting. […]

Molecule: Cn1cc(C2=C(c3ccc(Cl)cc3Cl)C(=O)NC2=O)c2ccccc21 [SB216763]
recruitment of Nurr1 at iNOS-promoter [1]: Altered recruitment of Nurr1 to iNOS-promoter | recruitment of Nurr1 at iNOS-promoter ([1]; listed as SB21): decreases the recruitment of Nurr1 at iNOS-promoter | recruitment of Nurr1 to the TNFα-promoter [2]: blocked | recruitment of Nurr1 to the TNFα-promoter ([2]; listed as SB21): prevented the recruitment of Nurr1 to the TNFα-promoter | interaction (binding) of Nurr1 and p65 [3]: inhibited the interaction of Nurr1 and p65 in BV2 cells in a dose-dependent manner | interaction (binding) of Nurr1 and p65 ([3]; listed as SB21): impairs the binding of Nurr1 and p65 in a dose-dependent manner

Molecule: Nc1nc2ccc(OC(F)(F)F)cc2s1 [riluzole]
extension of the course of the disease (ALS): 2 months

binding result [4]: binds
B1: NF-κB-p65, endogenous protein in mouse cells (other, UniProt Q04207 1-549, looked up)
chain: MDDLFPLIFPSEPAQASGPYVEIIEQPKQRGMRFRYKCEGRSAGSIPGERSTDTTKTHPTIKINGYTGPGTVRISLVTKDPPHRPHPHELVGKDCRDGYYEADLCPDRSIHSFQNLGIQCVKKRDLEQAISQRIQTNNNPFHVPIEEQRGDYDLNAVRLCFQVTVRDPAGRPLLLTPVLSHPIFDNRAPNTAELKICRVNRNSGSCLGGDEIFLLCDKVQKEDIEVYFTGPGWEARGSFSQADVHRQVAIVFRTPPYADPSLQAPVRVSMQLRRPSDRELSEPMEFQYLPDTDDRHRIEEKRKRTYETFKSIMKKSPFNGPTEPRPPTRRIAVPTRNSTSVPKPAPQPYTFPASLSTINFDEFSPMLLPSGQISNQALALAPSSAPVLAQTMVPSSAMVPLAQPPAPAPVLTPGPPQSLSAPVPKSTQAGEGTLSEALLHLQFDADEDLGALLGNSTDPGVFTDLASVDNSEFQQLLNQGVSMSHSTAEPMLMEYPEAITRLVTGSQRPPDPAPTPLGTSGLPNGLSGDEDFSSIADMDFSALLSQISS
notes: Endogenous protein, detected with anti-p65 (C-20, Santa Cruz)
